Earlier results on 2 compounds are cited in patent US8486621B2, “Nucleic acid-based matrixes” (Cornell Research Foundation, Inc., priority 2005, dated 2013).

In one data set the target is T1, PPAR-gamma (Homo sapiens, UniProt P37231).
T1 sequence (P37231 1-505): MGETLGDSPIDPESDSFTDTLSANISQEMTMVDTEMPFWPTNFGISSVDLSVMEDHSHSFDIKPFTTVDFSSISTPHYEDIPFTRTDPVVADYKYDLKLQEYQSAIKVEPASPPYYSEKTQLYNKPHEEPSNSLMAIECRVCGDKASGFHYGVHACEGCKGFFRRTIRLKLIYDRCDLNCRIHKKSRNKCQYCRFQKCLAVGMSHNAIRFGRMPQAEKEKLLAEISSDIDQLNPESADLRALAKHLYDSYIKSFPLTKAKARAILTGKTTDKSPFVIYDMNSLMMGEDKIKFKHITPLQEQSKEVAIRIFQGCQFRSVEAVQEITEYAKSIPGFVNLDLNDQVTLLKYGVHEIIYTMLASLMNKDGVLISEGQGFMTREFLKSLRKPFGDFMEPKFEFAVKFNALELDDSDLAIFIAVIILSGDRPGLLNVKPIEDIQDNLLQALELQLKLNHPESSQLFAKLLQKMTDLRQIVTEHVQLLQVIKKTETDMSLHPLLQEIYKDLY
The following applies: context-specific, some cell types.

Data set [1] concerns plasma glucose, insulin, and triglyceride levels. To be noted: in vivo.
The subject of data set [2] is major and minor grooves of the DNA molecules.

`O=C1NC(=O)C(Cc2ccc3cc(OCc4ccccc4F)ccc3c2)S1` (stereo not shown) [netoglitazone, 5-[{6-(2-fluorobenzyl)oxy-2-naphthyl}methyl]-2,4-thiazolidinedione]: on PPAR-gamma, the “mode of action at PPAR-gamma” value was “full agonist of PPAR-gamma and as a partial agonist or antagonist in others”. Also, in data set [1], the “efficacy in lowering plasma glucose, insulin, and triglyceride levels” value was “more efficacious than pioglitazone and troglitazone”; the “potency relative to rosiglitazone” value is recorded as “about three-fold more potent than rosiglitazone”.

Consider `CC[C@@]1(O)C(=O)OCc2c1cc1n(c2=O)Cc2cc3ccccc3nc2-1` [CPT, (S)-(+)-camptothecin], for which the “affinity to DNA” value in data set [2] is “high affinity”.
